From PubChem BioAssay AID1963970 (Molecular Pharmacology Branch, DTP, NCI, 2024)

Tested on: 931267-113-T-J1-PDC multicell spheroid viability
Assay: Anticancer human tumor 931267-113-T-J1-PDC patient-derived colon adenocarcinoma cell line growth inhibition [PI3K]
Conditions: for IC50: curve of first compound; for viability, T/C: stronger effect = lower value
Method in brief: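 Targeted small molecules plus PI3K inhibitors, half-log dose series from Cmax (default top 10 microM), were applied to heterotypic spheroids of cancer cells with HUVEC and MSCs. Viability indicated growth inhibition.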
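Further: viability read 7 days after compound addition.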

CNC(=O)c1ccc(N2C(=S)N(c3ccc(C#N)c(C(F)(F)F)c3)C(=O)C2(C)C)cc1F + COc1c(OCCCN2CCOCC2)ccc2c3n(c(=NC(=O)c4cnc(N)nc4)nc12)CCN3
IC50 (second compound 0.00316 µM): > 10000 nM | IC50 (second compound 0.01 µM): > 10000 nM | IC50 (second compound 0.0316 µM): > 10000 nM | IC50 (second compound 0.1 µM): > 10000 nM | IC50 (second compound 0.316 µM): 1560 nM | IC50 (second compound 1 µM): < 31.6 nM | viability, T/C (second compound 0.00316 µM, first compound 0.0316 µM): 109% | viability, T/C (second compound 0.00316 µM, first compound 0.1 µM): 107% | viability, T/C (second compound 0.00316 µM, first compound 0.316 µM): 99.3% | viability, T/C (second compound 0.00316 µM, first compound 1 µM): 101% | viability, T/C (second compound 0.00316 µM, first compound 3.16 µM): 104% | viability, T/C (second compound 0.00316 µM, first compound 10 µM): 104% | viability, T/C (second compound 0.01 µM, first compound 0.0316 µM): 105% | viability, T/C (second compound 0.01 µM, first compound 0.1 µM): 93.5% | viability, T/C (second compound 0.01 µM, first compound 0.316 µM): 102% | viability, T/C (second compound 0.01 µM, first compound 1 µM): 92% | viability, T/C (second compound 0.01 µM, first compound 3.16 µM): 100% | viability, T/C (second compound 0.01 µM, first compound 10 µM): 94.2% | viability, T/C (second compound 0.0316 µM, first compound 0.0316 µM): 85.2% | viability, T/C (second compound 0.0316 µM, first compound 0.1 µM): 80.7% | viability, T/C (second compound 0.0316 µM, first compound 0.316 µM): 85.7% | viability, T/C (second compound 0.0316 µM, first compound 1 µM): 86.8% | viability, T/C (second compound 0.0316 µM, first compound 3.16 µM): 93.2% | viability, T/C (second compound 0.0316 µM, first compound 10 µM): 74.4% | viability, T/C (second compound 0.1 µM, first compound 0.0316 µM): 70.8% | viability, T/C (second compound 0.1 µM, first compound 0.1 µM): 68.5% | viability, T/C (second compound 0.1 µM, first compound 0.316 µM): 75.7% | viability, T/C (second compound 0.1 µM, first compound 1 µM): 68.5% | viability, T/C (second compound 0.1 µM, first compound 3.16 µM): 69.1% | viability, T/C (second compound 0.1 µM, first compound 10 µM): 57.8% | viability, T/C (second compound 0.316 µM, first compound 0.0316 µM): 51% | viability, T/C (second compound 0.316 µM, first compound 0.1 µM): 55.9% | viability, T/C (second compound 0.316 µM, first compound 0.316 µM): 53.9% | viability, T/C (second compound 0.316 µM, first compound 1 µM): 52% | viability, T/C (second compound 0.316 µM, first compound 3.16 µM): 46.4% | viability, T/C (second compound 0.316 µM, first compound 10 µM): 40.8% | viability, T/C (second compound 1 µM, first compound 0.0316 µM): 36.4% | viability, T/C (second compound 1 µM, first compound 0.1 µM): 38.4% | viability, T/C (second compound 1 µM, first compound 0.316 µM): 39.3% | viability, T/C (second compound 1 µM, first compound 1 µM): 34.2% | viability, T/C (second compound 1 µM, first compound 3.16 µM): 36.1% | viability, T/C (second compound 1 µM, first compound 10 µM): 30.1%

Cn1cnc2c(F)c(Nc3ccc(Br)cc3Cl)c(C(=O)NOCCO)cc21 + COc1c(OCCCN2CCOCC2)ccc2c3n(c(=NC(=O)c4cnc(N)nc4)nc12)CCN3
IC50 (second compound 0.00316 µM): 103 nM | IC50 (second compound 0.01 µM): 81 nM | IC50 (second compound 0.0316 µM): 42.2 nM | IC50 (second compound 0.1 µM): 14 nM | IC50 (second compound 0.316 µM): < 9.49 nM | IC50 (second compound 1 µM): < 9.49 nM | viability, T/C (second compound 0.00316 µM, first compound 0.00949 µM): 83.7% | viability, T/C (second compound 0.00316 µM, first compound 0.03 µM): 71% | viability, T/C (second compound 0.00316 µM, first compound 0.0949 µM): 51.1% | viability, T/C (second compound 0.00316 µM, first compound 0.3 µM): 31.4% | viability, T/C (second compound 0.00316 µM, first compound 0.949 µM): 18.3% | viability, T/C (second compound 0.00316 µM, first compound 3 µM): 9.54% | viability, T/C (second compound 0.01 µM, first compound 0.00949 µM): 88.6% | viability, T/C (second compound 0.01 µM, first compound 0.03 µM): 73.1% | viability, T/C (second compound 0.01 µM, first compound 0.0949 µM): 45% | viability, T/C (second compound 0.01 µM, first compound 0.3 µM): 25.6% | viability, T/C (second compound 0.01 µM, first compound 0.949 µM): 15.3% | viability, T/C (second compound 0.01 µM, first compound 3 µM): 8.03% | viability, T/C (second compound 0.0316 µM, first compound 0.00949 µM): 76.4% | viability, T/C (second compound 0.0316 µM, first compound 0.03 µM): 57% | viability, T/C (second compound 0.0316 µM, first compound 0.0949 µM): 33.7% | viability, T/C (second compound 0.0316 µM, first compound 0.3 µM): 17.5% | viability, T/C (second compound 0.0316 µM, first compound 0.949 µM): 10.3% | viability, T/C (second compound 0.0316 µM, first compound 3 µM): 5.43% | viability, T/C (second compound 0.1 µM, first compound 0.00949 µM): 56.4% | viability, T/C (second compound 0.1 µM, first compound 0.03 µM): 37.7% | viability, T/C (second compound 0.1 µM, first compound 0.0949 µM): 19.6% | viability, T/C (second compound 0.1 µM, first compound 0.3 µM): 11.9% | viability, T/C (second compound 0.1 µM, first compound 0.949 µM): 7.31% | viability, T/C (second compound 0.1 µM, first compound 3 µM): 4.08% | viability, T/C (second compound 0.316 µM, first compound 0.00949 µM): 39.2% | viability, T/C (second compound 0.316 µM, first compound 0.03 µM): 25.2% | viability, T/C (second compound 0.316 µM, first compound 0.0949 µM): 14.3% | viability, T/C (second compound 0.316 µM, first compound 0.3 µM): 8.7% | viability, T/C (second compound 0.316 µM, first compound 0.949 µM): 5.28% | viability, T/C (second compound 0.316 µM, first compound 3 µM): 2.51% | viability, T/C (second compound 1 µM, first compound 0.00949 µM): 26.2% | viability, T/C (second compound 1 µM, first compound 0.03 µM): 17.8% | viability, T/C (second compound 1 µM, first compound 0.0949 µM): 9.52% | viability, T/C (second compound 1 µM, first compound 0.3 µM): 4.72% | viability, T/C (second compound 1 µM, first compound 0.949 µM): 2.93% | viability, T/C (second compound 1 µM, first compound 3 µM): 1.42%
